Here are results for 15 molecules from ChEMBL document CHEMBL3991942, “Low molecular weight MYC-MAX inhibitors” (2011).

Active and inactive are the calls of the source. The rule behind the calls is not given here.

For data set [1], the system named is HL-60. The experiment in a line: Effect on absolute levels of Max in human HL60 nuclear extracts at 100 to 200 uM after 30 mins by co-immunoprecipitation assay. The following applies: hl-60, 0.5 h.
For data set [2], the target named is T1, c-Myc/c-Max (Homo sapiens) (UniProt P01106+P61244). The data set can be described thus: Inhibition of c-Myc/Max interaction in human HL60 nuclear extracts at 100 to 200 uM after 30 mins by co-immunoprecipitation assay. The data set is classed as protein assay.
In data set [3] the test system is HL-60. The data set can be described thus: Effect on absolute levels of c-Myc in human HL60 nuclear extracts at 100 to 200 uM after 30 mins by co-immunoprecipitation assay. The following applies: hl-60, 0.5 h.
The target in data set [4] is T1, c-Myc/c-Max (Homo sapiens). The experiment in a line: Inhibition of recombinant human His6 tagged c-Myc bHLH-LZ domain (353 to 439 residues) with GGCD extension at C-terminus/recombinant human full length His6 tagged Max (151 residues) expressed in Escherichia coli assessed as reduction of heterodimer binding to HEX labeled E-box-containing DNA after 90 mins by electrophoretic mobility shift assay.

The test system of data set [5] is H016.4C. The experiment in a line: Cytotoxicity against rat H016.4C cells assessed as cell growth inhibition at 6 to 50 uM after 3 to 9 days by trypan blue exclusion assay. The data set is classed as functional, cell-based.
The target in data set [6] is Myc proto-oncogene protein (Homo sapiens) (UniProt P01106). The experiment in a line: Binding affinity to recombinant human His6 tagged c-Myc bHLH-LZ domain (353 to 439 residues) with GGCD extension at C-terminus expressed in Escherichia coli BL21 DE3 (pLysS) by fluorescence polarization assay.
Data set [7] shares this target. The data set can be described thus: Binding affinity to recombinant human His6 tagged c-Myc bHLH-LZ domain (353 to 439 residues) with GGCD extension at C-terminus expressed in Escherichia coli BL21 DE3 (pLysS) at 25 uM by fluorescence polarization assay.
Data set [8] in a line: Cytotoxicity against rat KO-HMG cells assessed as cell growth inhibition at 6 to 50 uM after 3 to 4 days by trypan blue exclusion assay. The data set is classed as cell-based.
For data set [9], the target named is Myc proto-oncogene protein (Rattus norvegicus) (UniProt P09416). The data set can be described thus: Inhibition of c-Myc in rat TGR1 cells assessed as cell growth inhibition at 6 to 50 uM after 3 to 4 days by trypan blue exclusion assay. The data set is classed as cell-based.
The target of data set [10] is Protein max (Homo sapiens) (UniProt P61244). The experiment in a line: Binding affinity to recombinant human full length His6 tagged Max (151 residues) expressed in Escherichia coli M15 (pRep4) at 25 uM by fluorescence polarization assay.

As to `O=C1NC(=S)S/C1=C\C1CCCCC1`, the Activity result in data set [1] and in data set [3] was “Non-Toxic” throughout. In addition, the inhibition entry in data set [2] was “Active”. Further, the inhibition entry in data set [4] was “Dose-dependent effect”.

With `CCc1ccc(/C=C2\SC(=S)NC2=O)cc1`, the Activity entry in [1], in data set [3] and in data set [8] was “Non-Toxic” in each case. In data set [5], the “growth inhibition (GI)” value is “inactive”. Also, the inhibition result in data set [2] and in data set [9] was “Active” in each case. For the same molecule, the K in data set [6] was 2.3 µM. Besides, the result in [7] was Active. Besides, the inhibition entry in [4] was “Dose-dependent effect”. The result in data set [10] was inactive.

Consider `CC(C)c1ccc(/C=C2\SC(=S)NC2=O)cc1`, for which the Activity result in data set [1] and in data set [3] was “Non-Toxic” in each case. The inhibition entry in data set [2] is “Active”. In [6], the K was 1 µM. Also, the result in data set [7] was Active. For the same molecule, in data set [4], the inhibition entry was “Dose-dependent effect”. Also, in data set [10], the result was inactive.

Turning to `O=C1NC(=S)S/C1=C\c1ccc(Cl)cc1`, the Activity entry in [1], in data set [3] and in data set [8] was “Non-Toxic” each time. For the same molecule, in data set [5], the “growth inhibition (GI)” value is “inactive”. For the same molecule, the inhibition entry in data set [2] and in data set [9] was “Active” throughout. Further, the K in data set [6] was determined as 2.5 µM. The result in data set [7] was Active. For the same molecule, in data set [4], the inhibition entry was “Dose-dependent effect”. For the same molecule, the result in data set [10] was inactive.

For `CCN(CC)c1ccc(/C=C2\SC(=S)NC2=O)cc1`, the outcome in [7] and in [10] was inactive.

On to `CCc1ccc(/C=C2\SC(=S)N(CN3CCCCC3)C2=O)cc1`, for which the Activity entry in data set [1] and in data set [3] was “Non-Toxic” each time. Moreover, the inhibition entry in data set [2] is “Active”. In addition, in [6], the K amounted to 5.7 µM. Further, in data set [7], the result was Active. Besides, in data set [4], the inhibition result was “Dose-dependent effect”. In addition, the result in data set [10] was inactive.

On to `C#CCN1C(=O)S/C(=C/c2ccc(CC)cc2)C1=O`, for which the Activity entry in data set [1], in data set [3] and in data set [8] was “Non-Toxic” each time. Moreover, the “growth inhibition (GI)” value in data set [5] is “inactive”. The inhibition entry in data set [2] and in data set [9] was “Active” each time. The inhibition result in data set [4] was “Dose-dependent effect”.

As to `O=C1/C(=C/c2ccc(Cl)cc2)SC(=S)N1CN1CCCCC1`, the Activity result in data set [1], in data set [3] and in data set [8] was “Non-Toxic” in each case. The “growth inhibition (GI)” value in [5] was “inactive”. The inhibition result in [2] and in [9] was “Active” each time. The K in data set [6] came to 0.6 µM. Moreover, the result in data set [7] was Active. In addition, in [4], the inhibition result was “Dose-dependent effect”. Besides, the outcome in data set [10] was inactive.

Turning to `CC(C)c1ccc(/C=C2\SC(=S)N(CN3CCCCC3)C2=O)cc1`, the Activity result in data set [1], in data set [3] and in data set [8] was “Non-Toxic” in each case. Moreover, the “growth inhibition (GI)” value in data set [5] is “inactive”. The inhibition entry in data set [2] and in data set [9] was “Active” in each case. For the same molecule, in data set [6], the K worked out at 1.8 µM. Besides, the outcome in [7] was Active. Also, in [4], the inhibition result is “Dose-dependent effect”. Moreover, the result in [10] was inactive.

For the molecule `O=C1NC(=S)S/C1=C\c1ccc(O)cc1`, the outcome in data set [7] and in [10] was inactive.

`CCc1ccc(/C=C2\SC(=S)N(CCC(C)=O)C2=O)cc1`: the Activity result in [1], in data set [3] and in [8] was “Non-Toxic” throughout. Besides, the “growth inhibition (GI)” value in [5] is “inactive”. Further, the inhibition entry in data set [2] and in data set [9] was “Active” in each case. Also, the K in data set [6] was found to be 1.4 µM. Further, the outcome in data set [7] was Active. Besides, the inhibition entry in data set [4] was “Dose-dependent effect”. Also, the result in [10] was inactive.

Regarding `C=CCN1C(=O)/C(=C\c2ccc(CC)cc2)SC1=S`, the Activity entry in [1], in data set [3] and in [8] was “Non-Toxic” throughout. The “growth inhibition (GI)” value in data set [5] is “inactive”. In addition, the inhibition result in data set [2] and in data set [9] was “Active” throughout. Besides, in data set [6], the K was 3.1 µM. For the same molecule, the result in [7] was Active. For the same molecule, the inhibition entry in data set [4] is “Dose-dependent effect”. In addition, the outcome in data set [10] was inactive.

Consider `C/C(=C1/SC(=S)NC1=O)c1ccccc1`, for which the outcome in data set [7] and in data set [10] was inactive.

For the molecule `CCc1ccc(/C=C2\SC(SC)=NC2=O)cc1`, the Activity entry in data set [1] and in data set [3] was “Non-Toxic” throughout. In data set [2], the inhibition entry is “Active”. Also, the K in data set [6] was 4.1 µM. Further, in data set [7], the outcome was Active. For the same molecule, the inhibition result in data set [4] was “Dose-dependent effect”. Moreover, the result in [10] was inactive.

Take `O=C1NC(=S)S/C1=C\c1ccc(O)c(O)c1`: the Activity result in data set [1], in [3] and in [8] was “Non-Toxic” throughout. For the same molecule, the “growth inhibition (GI)” value in data set [5] was “inactive”. Besides, the inhibition result in [2] and in [9] was “Active” each time. Further, the K in data set [6] was 8.6 µM. The result in data set [7] was Active. Also, the inhibition entry in data set [4] was “Dose-dependent effect”. Moreover, the result in data set [10] was inactive.
